Laboratory results reported in patent publication US9260395B2, “Inhibitors of viral replication, their process of preparation and their therapeutical uses” (priority 2012, dated 2016).
Like-named read-outs stand apart in the source and are kept apart here.

Test system: NL4-3 strain of HIV-1
Test: Cyto-protection (CellTiter-Glo viability) assay of MT4 cells infected with NL4-3 virus; inhibition of HIV replication
Type: cell-based
Procedure: Preparation of Virus stock of the NL4-3 strain of HIV-1 (Adachi et al, J Virol, 1986, 59(2):284-91).
The virus was prepared as described in Lopez et al (Lopez et al, Proc Natl Acad Sci USA., 2006, 103(40):14947-52, by transfecting 2×10^6 293 T cells (CRL-1573, ATCC) with following modifications: 6 μg of NL4-3 proviral DNA molecular clone were mixed with Fugene 6 transfection reagent from Roche, and used according to manufacturer's instructions. Forty eight hours later, transfected cell supernatants were harvested, filtered through 0.45-μm-pore-size filters, quantified for HIV-1 p24 antigen by using a Innotest HIV antigen mAb assay (Ingen) according to manufacturer's instructions, and used in infection experiments.
Serial dilutions of compounds to be tested were prepared in complete RPMI medium from 10 mM DMSO stock solutions, and I in 96 well Falcon 353072 Microtest[…]distributed in a volume of 20™ tissue culture plate, in order to get 0.5% DMSO final concentration in each well, after the addition of infected cells. Control wells contained also 0.5% DMSO final concentration but no compound.
MT4 cells (from the NIH AIDS Research and Reference Reagent Program) in RPMI complete medium were counted (10×10^6 cells per well in Falcon 353047 Multiwell™ 24 well) and infected for 2 hours at 37°, at a multiplicity of infection (moi) of 0.0001-0.00001. Cells were then centrifuged 3 min at 3000 rpm, and washed two times in 1 ml PBS to remove viruses that have not entered in cells. Infected cells were resuspended in complete RPMI at 1.25×10^6 cells/ml and 80 μl of infected cells were distributed in each well containing compound to be tested or control wells. The plates were then incubated at 37° for 5 days.
Assay used to measure the inhibition of HIV replication by the compounds (according to Gregg S. Jones et al., Antimicrobial Agents and Chemotherapy, 2009, 53 (3): 1194-1203).
After 5 days of incubation, microplates were equilibrated to room temperature for 30 mn and then 50 μl of CellTiter-Glo reagent (Promega Biosciences, Inc., Madison Wis., USA) were added to each well. Cell lysis was carried out at room temperature during 10 min, 150μl of lysates were transferred in Packard Optiplate 96 well, and luminescence was read on a Fluoroskan (Thermo Scientific).
The EC50, or effective concentration 50, is the concentration of compound leading to 50% of cyto-protection in a Cell-Titer-Glo® viability assay based on MT4 cells infected with NL4-3 virus (table 1).

[1] = Human immunodeficiency virus 1, NL43, 120 h, concentration leading to 50% of cyto-protection, MT4 cells infected with NL4-3 virus, 5 days incubation, CellTiter-Glo, read-out: EC50

Structure (SMILES): Cn1nc(-c2cccs2)c(-c2ccc3c(c2)CCCO3)c1C(OC(C)(C)C)C(=O)O (centres unmarked) [Example 3, 2-(tert-butoxy)-2-[4-(3,4-dihydro-2H-1-benzopyran-6-yl)-1-methyl-3-(thiophen-2-yl)-1H-pyrazol-5-yl]acetic acid]
- EC50 [1]: 290 nM

Structure (SMILES): C/C=C/c1nn(C)c(C(OC(C)(C)C)C(=O)O)c1-c1ccc2c(c1)CCCO2 (centres unmarked) [Example 29, 2-(tert-butoxy)-2-[4-(3,4-dihydro-2H-1-benzopyran-6-yl)-1-methyl-3-[(1E)-prop-1-en-1-yl]-1H-pyrazol-5-yl]acetic acid]
- EC50 [1]: 1400 nM

Structure (SMILES): Cn1nc(-c2ccccc2)c(-c2ccc3c(c2)CCCO3)c1C(OC(C)(C)C)C(=O)O (centres unmarked) [Example 2, 2-(tert-butoxy)-2-[4-(3,4-dihydro-2H-1-benzopyran-6-yl)-1-methyl-3-phenyl-1H-pyrazol-5-yl]acetic acid]
- EC50 [1]: 680 nM

Structure (SMILES): Cn1nc(-c2ccncc2)c(-c2ccc3c(c2)CCCO3)c1C(OC(C)(C)C)C(=O)O (centres unmarked) [Example 40, 2-(tert-butoxy)-2-[4-(3,4-dihydro-2H-1-benzopyran-6-yl)-1-methyl-3-(pyridin-4-yl)-1H-pyrazol-5-yl]acetic acid]
- EC50 [1]: 6000 nM

Structure (SMILES): Cc1c(-c2c(-c3cccs3)nn(C)c2C(OC(C)(C)C)C(=O)O)cc(F)c2c1CCCO2 (centres unmarked) [Example 10, 2-(tert-butoxy)-2-[4-(8-fluoro-5-methyl-3,4-dihydro-2H-1-benzopyran-6-yl)-1-methyl-3-(thiophen-2-yl)-1H-pyrazol-5-yl]acetic acid]
- EC50 [1]: 1100 nM

Structure (SMILES): Cn1nc(-c2ccccn2)c(-c2ccc3c(c2)CCCO3)c1C(OC(C)(C)C)C(=O)O (centres unmarked) [Example 9, 2-(tert-butoxy)-2-[4-(3,4-dihydro-2H-1-benzopyran-6-yl)-1-methyl-3-(pyridin-2-yl)-1H-pyrazol-5-yl]acetic acid]
- EC50 [1]: 3700 nM

Structure (SMILES): CC1CCC=C1c1nn(C)c(C(OC(C)(C)C)C(=O)O)c1-c1ccc2c(c1)CCCO2 (centres unmarked) [Example 26, 2-(tert-butoxy)-2-[4-(3,4-dihydro-2H-1-benzopyran-6-yl)-1-methyl-3-(5-methylcyclopent-1-en-1-yl)-1H-pyrazol-5-yl]acetic acid]
- EC50 [1]: 630 nM

Structure (SMILES): Cn1nc(-c2cccs2)c(C2=CCC(C)(C)CC2)c1C(OC(C)(C)C)C(=O)O (centres unmarked) [Example 6, 2-(tert-butoxy)-2-[4-(4,4-dimethylcyclohex-1-en-1-yl)-1-methyl-3-(thiophen-2-yl)-1H-pyrazol-5-yl]acetic acid]
- EC50 [1]: 470 nM

Structure (SMILES): Cn1nc(C2=CC3CCC2C3)c(-c2ccc3c(c2)CCCO3)c1C(OC(C)(C)C)C(=O)O (centres unmarked) [Example 15, 2-(3-{bicyclo[2.2.1]hept-2-en-2-yl}-4-(3,4-dihydro-2H-1-benzopyran-6-yl)-1-methyl-1H-pyrazol-5-yl)-2-(tert-butoxy)acetic acid]
- EC50 (Human immunodeficiency virus 1, NL43, MT4, 120 h): 550 nM

Structure (SMILES): CC(C)(C)OC(C(=O)O)c1c(-c2ccc3c(c2)CCCO3)c(-c2cccs2)nn1CC(F)(F)F (centres unmarked) [Example 34, 2-(tert-butoxy)-2-[4-(3,4-dihydro-2H-1-benzopyran-6-yl)-3-(thiophen-2-yl)-1-(2,2,2-trifluoroethyl)-1H-pyrazol-5-yl]acetic acid]
- EC50 [1]: 3500 nM

Structure (SMILES): Cn1nc(CC2CCCC2)c(-c2ccc3c(c2)CCCO3)c1C(OC(C)(C)C)C(=O)O (centres unmarked) [Example 21, 2-(tert-butoxy)-2-[3-(cyclopentylmethyl)-4-(3,4-dihydro-2H-1-benzopyran-6-yl)-1-methyl-1H-pyrazol-5-yl]acetic acid]
- EC50 [1]: 9300 nM
